Key:
mouse tumors = experiment: CEST MRI of tumor-bearing animals before and after sucralose injection; type: in vivo; details: tumor region; sucralose 100 mM intra peritoneally; at 40 minutes; vs baseline
Protocol: (§1) Different concentration of Splenda and sucralose were prepared in PBS and all the experiments were performed at 37° C. on a 9.4 T horizontal bore small animal MR scanner (Varian, Palo Alto, CA). CEST images were acquired at different saturation power and saturation lengths from frequency offset −5 to 5 ppm in step size of 0.1 ppm. Acquired CEST images were corrected for B0 and used to generate CEST contrast map using Equation [1].
(§2) [formula] where S−ve and S+ve are the B0 corrected MRI signals obtained at −1 ppm and +1 ppm respectively, and S0 is the image obtained without any saturation. CEST contrast was further corrected for B1 and mapped as false-colors onto anatomical proton image. The CEST asymmetry plots were generated by plotting the relative water signal difference at frequency offset from 0 to 4.8 ppm. • FIG. 1: Z-spectra (A), asymmetry plot (B), and CEST map (C) of CEST effect from 0.5% Splenda. […]
(§3) Imaging was performed in tumor-bearing animals at a 9.4 T horizontal bore Varian system. […] Respiration and body temperature were continuously monitored using a MRI-compatible small animal monitor system (SA Instruments, Inc., Stony Brook, NY). CEST imaging was performed using a custom-programmed, segmented radiofrequency GRE readout pulse sequence, with a frequency selective continuous wave saturation preparation pulse. […]

rat brain tumor = experiment: SWEETEST (CEST) MRI, sucralose injection studies in a rat brain tumor; type: in vivo; details: sucralose 300 mM via tail vein, 40 minute post injection, vs baseline
Protocol: as §1, §2, §3

OC[C@H]1O[C@H](O[C@]2(CCl)O[C@H](CCl)[C@@H](O)[C@@H]2O)[C@H](O)[C@@H](O)[C@H]1Cl [sucralose]
percent change in the contrast post injection of sucralose (mouse tumors): about 100%
increase in SWEETEST contrast (rat brain tumor): ~80%

Source: patent US11938200B2, “Non-nutritive sweeteners and polyols as imaging agents” (THE TRUSTEES OF THE UNIVERSITY OF PENNSYLVANIA, priority 2016, dated 2024)
